Data from US20210352899A1, “COMPOSITIONS COMPRISING PYRIDINE CARBOXYLATE HERBICIDES AND FATTY ACID AND LIPID SYNTHESIS INHIBITOR HERBICIDES” (Corteva Agriscience LLC, priority 2018, published 2021).

Columns and labels:
Type in all cases: in vivo
[1] = system: Brassica napus (spring rape); assay: Greenhouse postemergence herbicidal effect, BRSNN
From the text: (§1) Seeds of the desired test plant species were planted in a 90:10% v/v (volume/volume) mixture of PRO-MIX® BX (Premier Tech Horticulture, Quakertown, Pa., USA) and PROFILE® GREENS GRADE™ (Profile Products LLC, Buffalo Grove, Ill., USA) planting mixture, which typically has a pH of 5.2 to 6.2 and an organic matter content of at least 50 percent, in plastic pots with a surface area of 103.2 square centimeters (cm^2). In some aspects, to help ensure good germination and healthy plants, a fungicide treatment and/or other chemical or physical treatment was applied. The plants were grown for 7-36 days (d) in a greenhouse with an approximate 14-hour (h) photoperiod which was maintained at about 23° C. during the day and 22° C. during the night. Nutrients and water were added on a regular basis and supplemental lighting was provided with overhead metal halide 1000-Watt lamps as necessary. The plants were employed for testing when they reached the second or third true leaf stage.
(§2) Emulsifiable concentrates of each pyridine carboxylate herbicide (Compound A or Compound B) were prepared at 100 grams acid equivalent per liter (g ae/L). The emulsifiable concentrates also included a safener, cloquintocet-mexyl, at 120 grams active ingredient per liter (g ai/L). An aliquot of each emulsifiable concentrate was placed in a 25 mL glass vial and diluted with an aqueous mixture of 1.25% (v/v) ACTIROB® B esterified rapeseed oil (Bayer Crop Science, Research Triangle Park, N.C., USA) or MSO® Concentrate with LECI-TECH® methylated soybean oil (Loveland Products, Loveland, Colo., USA) to obtain concentrated stock solutions at the highest application rate for each herbicide, based upon a 12 milliliter (mL) application volume at a rate of 187 liters per hectare (L/ha). The concentrated stock solutions were further diluted with an aqueous mixture of 1.25% v/v ACTIROB® B or MSO® Concentrate with LECI-TECH® to obtain stock solutions at reduced application rates for each herbicide. Spray solutions of the herbicide combinations (Compound A or Compound B plus the FA/LSI herbicide) were prepared by adding weighed amounts or aliquots of the FA/LSI herbicide to the stock solutions of Compound A or Compound B to form 12-mL spray solutions in two-way combinations.
(§3) The spray solutions were applied to the plant material with an overhead Mandel track sprayer equipped with 8002E nozzles calibrated to deliver 187 L/ha over an application area of 0.503 square meters (m^2) at a spray height of 18 inches (43 centimeters (cm)) above the average plant canopy. Control plants were sprayed in the same manner with the solvent blank. All pyridine carboxylate herbicide (component a) application rates are given as “g ae/ha” and all FA/LSI herbicide (component b) application rates are given as “g ai/ha.”
(§4) The treated plants and control plants were placed in a greenhouse as described above and watered by sub-irrigation to prevent wash-off of the test compounds. After 20-22 d, the condition of the test plants as compared with that of the control plants was determined visually and scored on a scale of 0 to 100 percent where 0 corresponds to no injury and 100 corresponds to complete kill.

[2] = system: Sinapis arvensis (wild mustard); assay: Greenhouse postemergence herbicidal effect, SINAR
From the text: as §1, §2, §3, §4

[3] = system: Matricaria chamomilla (wild chamomile); assay: Greenhouse postemergence herbicidal effect, MATCH
From the text: as §1, §2, §3, §4

[4] = system: Chenopodium album L. (common lambsquarters); assay: Greenhouse postemergence herbicidal effect, CHEAL
From the text: as §1, §2, §3, §4

[5] = system: Salsola kali (Russian thistle); assay: Greenhouse postemergence herbicidal effect, SASKR
From the text: as §1, §2, §3, §4

[6] = system: Polygonum convolvulus (wild buckwheat); assay: Greenhouse postemergence herbicidal effect, POLCO
From the text: as §1, §2, §3, §4

Kochia scoparia (kochia) = assay: Greenhouse postemergence herbicidal effect, KCHSC
From the text: as §1, §2, §3, §4

[7] = system: Amaranthus retroflexus (pigweed); assay: Greenhouse postemergence herbicidal effect, AMARE
From the text: as §1, §2, §3, §4

[8] = system: Stellaria media (chickweed); assay: Greenhouse postemergence herbicidal effect, STEME
From the text: as §1
(§5) Emulsifiable concentrates of each pyridine carboxylate herbicide (Compound A or Compound B) were prepared at 100 grams acid equivalent per liter (g ae/L). The emulsifiable concentrates also included a safener, cloquintocet-mexyl, at 120 grams active ingredient per liter (g ai/L). […]
as §4

[9] = system: Echinochloa crus-galli (barnyard grass); assay: Greenhouse postemergence herbicidal effect, ECHCG
From the text: as §1, §5, §4

[10] = system: Lolium multiflorum (Italian ryegrass); assay: Greenhouse postemergence herbicidal effect, LOLMU
From the text: as §1, §5, §4

[11] = system: Triticum aestivum (spring wheat); assay: Greenhouse postemergence crop phytotoxicity, TRZAS
From the text: as §1, §2, §3, §4

[12] = system: Viola tricolor (wild pansy); assay: Greenhouse postemergence herbicidal effect, VIOTR
From the text: as §1, §5, §4

[13] = system: Digitaria sanguinalis (large crabgrass); assay: Greenhouse postemergence herbicidal effect, DIGSA
From the text: as §1, §5, §4

[14] = system: Cirsium arvense (Canada thistle); assay: Greenhouse postemergence herbicidal effect, CIRAR
From the text: as §1, §2, §3, §4

[15] = system: Hordeum vulgare (spring barley); assay: Greenhouse postemergence crop phytotoxicity, HORVS
From the text: as §1, §2, §3, §4

Glycine max (soybean) = assay: Greenhouse postemergence herbicidal effect, GLXMA
From the text: as §1, §5, §4

[16] = system: Setaria faberi (giant foxtail); assay: Greenhouse postemergence herbicidal effect, SETFA
From the text: as §1, §5, §4

[17] = Compound A 0, Benfuresate 150 g/ha
[18] = Compound A 7.5 g/ha, Prosulfocarb 0
[19] = Compound A 10 g/ha, Prosulfocarb 0
[20] = Compound A 7.5 g/ha, Benfuresate 0
[21] = Compound A 7.5 g/ha, Esprocarb 0
[22] = Compound A 7.5 g/ha, Thiobencarb 0
[23] = Compound A 10 g/ha, Benfuresate 0
[24] = Compound A 10 g/ha, Esprocarb 0
[25] = Compound A 10 g/ha, Thiobencarb 0
[26] = Compound A 0, Esprocarb 420 g/ha
[27] = Compound A 0, Prosulfocarb 250 g/ha
[28] = Compound A 0, Thiobencarb 1120 g/ha

SMILES: CCS(=O)(=O)Oc1ccc2c(c1)C(C)(C)CO2 [Benfuresate, benfuresate, reference compound]
- % visual injury, Obs [1, 17]: 5%
- % visual injury, Obs [2, 17]: 0%
- % visual injury, Obs [3, 17]: 0%
- % visual injury, Obs [4, 17]: 0%
- % visual injury, Obs [5, 17]: 0%
- % visual injury, Obs [6, 17]: 0%
- % visual injury, Obs (Kochia scoparia (kochia); [17]): 0%
- % visual injury, Obs [7, 17]: 10%

SMILES: N#CCOC(=O)c1nc(-c2ccc3cc[nH]c3c2F)c(F)c(N)c1Cl [Compound A, cyanomethyl 4-amino-3-chloro-5-fluoro-6-(7-fluoro-1H-indol-6-yl)pyridine-2-carboxylate]
- % visual injury, Obs [8, 18]: 100%
- % visual injury, Obs [8, 19]: 97%
- % visual injury, Obs [1, 20]: 55%
- % visual injury, Obs [1, 21]: 55%
- % visual injury, Obs [1, 18]: 73%
- % visual injury, Obs [1, 22]: 55%
- % visual injury, Obs [1, 23]: 60%
- % visual injury, Obs [1, 24]: 70%
- % visual injury, Obs [1, 19]: 83%
- % visual injury, Obs [1, 25]: 60%
- % visual injury, Obs [2, 20]: 88%
- % visual injury, Obs [2, 21]: 85%
- % visual injury, Obs [2, 22]: 88%
- % visual injury, Obs [2, 23]: 92%
- % visual injury, Obs [2, 24]: 90%
- % visual injury, Obs [2, 25]: 92%
- % visual injury, Obs [3, 20]: 13%
- % visual injury, Obs [3, 21]: 0%
- % visual injury, Obs [3, 22]: 13%
- % visual injury, Obs [3, 23]: 15%
- % visual injury, Obs [3, 24]: 33%
- % visual injury, Obs [3, 25]: 15%
- % visual injury, Obs [9, 18]: 73%
- % visual injury, Obs [9, 19]: 78%
- % visual injury, Obs [4, 20]: 70%
- % visual injury, Obs [4, 21]: 60%
- % visual injury, Obs [4, 18]: 97%
- % visual injury, Obs [4, 22]: 70%
- % visual injury, Obs [4, 23]: 83%
- % visual injury, Obs [4, 24]: 90%
- % visual injury, Obs [4, 19]: 93%
- % visual injury, Obs [4, 25]: 83%
- % visual injury, Obs [10, 18]: 0%
- % visual injury, Obs [10, 19]: 0%
- % visual injury, Obs [5, 20]: 45%
- % visual injury, Obs [5, 21]: 38%
- % visual injury, Obs [5, 22]: 45%
- % visual injury, Obs [5, 23]: 60%
- % visual injury, Obs [5, 24]: 63%
- % visual injury, Obs [5, 25]: 60%
- % visual injury, Obs [6, 20]: 70%
- % visual injury, Obs [6, 18]: 75%
- % visual injury, Obs [6, 22]: 70%
- % visual injury, Obs [6, 23]: 78%
- % visual injury, Obs [6, 19]: 70%
- % visual injury, Obs [6, 25]: 78%
- % visual injury, Obs [11, 20]: 0%
- % visual injury, Obs [11, 21]: 0%
- % visual injury, Obs [11, 22]: 0%
- % visual injury, Obs [11, 23]: 0%
- % visual injury, Obs [11, 24]: 0%
- % visual injury, Obs [11, 25]: 0%
- % visual injury, Obs [12, 18]: 10%
- % visual injury, Obs [12, 19]: 18%
- % visual injury, Obs (Kochia scoparia (kochia); [20]): 50%
- % visual injury, Obs (Kochia scoparia (kochia); [21]): 50%
- % visual injury, Obs (Kochia scoparia (kochia); [18]): 60%
- % visual injury, Obs (Kochia scoparia (kochia); [22]): 50%
- % visual injury, Obs (Kochia scoparia (kochia); [23]): 58%
- % visual injury, Obs (Kochia scoparia (kochia); [24]): 55%
- % visual injury, Obs (Kochia scoparia (kochia); [19]): 65%
- % visual injury, Obs (Kochia scoparia (kochia); [25]): 58%
- % visual injury, Obs [7, 20]: 100%
- % visual injury, Obs [7, 21]: 70%
- % visual injury, Obs [7, 22]: 100%
- % visual injury, Obs [7, 23]: 100%
- % visual injury, Obs [7, 24]: 98%
- % visual injury, Obs [7, 25]: 100%
- % visual injury, Obs [13, 18]: 45%
- % visual injury, Obs [13, 19]: 25%
- % visual injury, Obs [14, 21]: 10%
- % visual injury, Obs [14, 18]: 23%
- % visual injury, Obs [14, 24]: 23%
- % visual injury, Obs [14, 19]: 20%
- % visual injury, Obs [15, 20]: 8%
- % visual injury, Obs [15, 21]: 0%
- % visual injury, Obs [15, 22]: 8%
- % visual injury, Obs [15, 23]: 0%
- % visual injury, Obs [15, 24]: 0%
- % visual injury, Obs [15, 25]: 0%
- % visual injury, Obs (Glycine max (soybean); [18]): 93%
- % visual injury, Obs (Glycine max (soybean); [19]): 95%
- % visual injury, Obs [16, 18]: 70%
- % visual injury, Obs [16, 19]: 70%

SMILES: CCN(C(=O)SCc1ccccc1)C(C)C(C)C (stereo not drawn) [Esprocarb, esprocarb, reference compound]
- % visual injury, Obs [1, 26]: 0%
- % visual injury, Obs [2, 26]: 0%
- % visual injury, Obs [3, 26]: 5%
- % visual injury, Obs [4, 26]: 0%
- % visual injury, Obs [5, 26]: 0%
- % visual injury, Obs (Kochia scoparia (kochia); [26]): 0%
- % visual injury, Obs [7, 26]: 15%
- % visual injury, Obs [14, 26]: 0%

SMILES: CCCN(CCC)C(=O)SCc1ccccc1 [Prosulfocarb, prosulfocarb, reference compound]
- % visual injury, Obs [8, 27]: 0%
- % visual injury, Obs [1, 27]: 0%
- % visual injury, Obs [9, 27]: 0%
- % visual injury, Obs [4, 27]: 0%
- % visual injury, Obs [10, 27]: 0%
- % visual injury, Obs [6, 27]: 0%
- % visual injury, Obs [12, 27]: 0%
- % visual injury, Obs (Kochia scoparia (kochia); [27]): 0%
- % visual injury, Obs [13, 27]: 0%
- % visual injury, Obs [14, 27]: 0%
- % visual injury, Obs (Glycine max (soybean); [27]): 0%
- % visual injury, Obs [16, 27]: 0%

SMILES: CCN(CC)C(=O)SCc1ccc(Cl)cc1 [Thiobencarb, thiobencarb, reference compound]
- % visual injury, Obs [1, 28]: 10%
- % visual injury, Obs [2, 28]: 5%
- % visual injury, Obs [3, 28]: 15%
- % visual injury, Obs [4, 28]: 0%
- % visual injury, Obs [5, 28]: 0%
- % visual injury, Obs [6, 28]: 0%
- % visual injury, Obs (Kochia scoparia (kochia); [28]): 0%
- % visual injury, Obs [7, 28]: 10%
